{"source": "patent US6762052B1", "about": "“DNA sequence encoding flavin-containing monooxygenase” (priority 1993, dated 2004)", "key": {"Human Liver Microsomes": {"test_system": "Human Liver Microsomes", "test": "in vitro"}, "lys158-HFMO3-MBP": {"molecular_target": "T1, lys158-HFMO3-MBP (Homo sapiens, UniProt P31513, E158K)", "T1 sequence (P31513 2-532 E158K)": "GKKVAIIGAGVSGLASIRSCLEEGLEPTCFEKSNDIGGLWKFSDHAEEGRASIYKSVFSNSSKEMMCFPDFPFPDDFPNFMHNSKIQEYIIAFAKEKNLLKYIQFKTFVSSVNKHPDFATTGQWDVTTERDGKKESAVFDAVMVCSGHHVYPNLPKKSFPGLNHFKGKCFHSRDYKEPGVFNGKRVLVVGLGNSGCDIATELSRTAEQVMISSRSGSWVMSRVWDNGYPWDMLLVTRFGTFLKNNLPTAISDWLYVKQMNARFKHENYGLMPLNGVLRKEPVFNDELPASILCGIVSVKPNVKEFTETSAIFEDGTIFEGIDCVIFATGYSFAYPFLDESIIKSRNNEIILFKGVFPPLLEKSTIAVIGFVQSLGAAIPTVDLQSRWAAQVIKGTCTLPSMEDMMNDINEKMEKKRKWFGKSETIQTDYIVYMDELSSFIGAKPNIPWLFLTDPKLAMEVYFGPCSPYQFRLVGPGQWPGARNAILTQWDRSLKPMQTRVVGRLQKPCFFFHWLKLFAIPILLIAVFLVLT", "test": "Substrate oxygenation by lys158-HFMO3-MBP fusion protein, HPLC", "conditions": "lys158-HFMO3-MBP, N-oxygenation", "description": "For HFMO3-MBP assay, all HFMO3-MBP incubations were done as follows: Into a test tube was added DETAPAC (1.2 mM, final concentration for a 250 μl reaction) followed by the addition of 60 μl NADPH generating system (0.4 mM NADP, 0.4 mM glucose-6-phosphate, and 20 μl of a 50 units mI^−1 glucose-6-phosphate dehydrogenase). The tube was chilled on ice and buffer and enzyme were added as described below for individual experiments to give a volume of 240 μl. The incubation was initiated by the addition of 5-DTP (10 μl of 5 mM) and placed in a shaking water bath at 37° C. for 10 min (unless specified otherwise). The incubation was stopped by the addition of 1.0 ml of ice-cold CH2Cl2. Following the addition of sodium carbonate (approx. 20 mg), the culture tube was vortexed, centrifuged (2000×g, 10 min), and the organic layer was removed and transferred to a 1.5 ml microfuge tube. The organic solvent was evaporated under a stream of Ar(g) to dryness and the residue was taken up in MeOH (300 μl) for determination HPLC analysis.\nData was analyzed with a Hitachi D-2500 integrator.\nMTS-oxygenation assays were carried out under the same buffer, temperature, time and volume conditions, as for the N-oxygenation assays. The reactions were initiated upon addition of 10 μl of a 5 mM solution of MTS. The reaction was quenched with the addition of 700 μl of 80% CH3CN:20% hexane then 20 mg NaCl(s) and vortexed vigorously for 10 sec. The quenched reactions were then centrifuged briefly to separate the phases. The organic layer, containing product and substrate, was removed and used directly for HPLC analysis.\nAll other instruments used were the same as above for the N-oxygenation reactions. Conditions for elution were 50% CH3CN/H2O (v:v) with a flow rate gradient as follows: 1.5 ml min^−1 from 0 to 4 min., 1.5-2.5 ml min^−1 from 4 to 5 min, 2.5 ml min^−1 from 5 to 15 min.\nTrimethylamine is commonly ingested in foodstuffs or it is available in the diet of humans from choline and other sources. Trimethylamine (TMA) is exclusively eliminated in humans by metabolism to trimethylamine N-oxide (TMANO). […] Thus, urinary TMANO formation provides a simple, reliable and direct assay of FMO3 activity in adult humans. Analysis of TMA to TMANO ratios provides a direct means of phenotyping adult humans for FMO3 activity. Phenotyping FMO3 activity in humans would provide a simple means of evaluating the relationship between the presence of FMO3 and various disease conditions. […]"}}, "data": [{"smiles": "CN(C)CCCCCN1c2ccccc2Sc2ccc(C(F)(F)F)cc21", "note": "[Compound 5]", "values": [{"measurement": "Km", "setting": "Human Liver Microsomes", "result": 6.8, "unit": "µM"}, {"measurement": "N-oxide formation, Human Liver Microsomes", "setting": "Human Liver Microsomes", "result": "252.1 ± 38.6 pmol/min/mg of protein"}, {"measurement": "S-oxide formation, Human Liver Microsomes", "setting": "Human Liver Microsomes", "result": "32.5 ± 33.7 pmol/min/mg of protein"}, {"measurement": "Vmax, Human Liver Microsomes", "setting": "Human Liver Microsomes", "result": "0.098 nmol/min/mg of protein"}, {"measurement": "Km", "setting": "lys158-HFMO3-MBP", "result": 78, "unit": "µM"}, {"measurement": "Vmax", "setting": "lys158-HFMO3-MBP; Lineweaver-Burke analysis", "result": "1.88 nmole/min/nmol of flavin"}]}]}
